Consider ten compounds from patent US20250034173A1, “PYRIDO[4,3-D]PYRIMIDINE COMPOUNDS” (PFIZER INC., priority 2023, published 2025).

Experiment [1] relates to H358 (non-small cell lung cancer cell line). Briefly: KRAS Cell Titer Glo (CTG) cell proliferation assay, H358. The format is cell-based. To be noted: H358 cells, 7-day CTG, geomean IC50. From the text: (§1) The CellTiter-Glo® (CTG) Luminescent Cell Viability Assay is a homogeneous method of determining the number of viable cells in culture based on quantitation of the ATP present, an indicator of metabolically active cells. The CTG is designed for use with multi-well formats, making it ideal for automated high-throughput screening (HTS), cell proliferation and cytotoxicity assays. The homogeneous assay procedure involves adding the single reagent (CellTiter-Glo® Reagent) directly to cells cultured in serum-supplemented medium. Cell washing, removal of medium and multiple pipetting steps are not required. The system detects as few as 15 cells per well in a 384-well format in 10 minutes after adding reagent and mixing.
(§2) Cells are grown in humidified 5% CO2 incubator at 37° C. using the culture conditions outlined below. All cell culture media reagents were purchased from Gibco. Cell lines purchased from ATCC: H358 (non-small cell lung cancer cell line), SW620 (colorectal cancer cell line), PANC08.13 (RPM11640+10% FBS+10 units/mL Insulin, pancreatic cancer cell line). Test and control compounds are dispensed as nanoliter drops according to desired final concentrations in 0.1% DMSO using Echo Acoustic Dispenser onto 384 assay plates (Corning, Cat #3764) prior to cell seeding. Cells were seeded in 40 μL volume per well at the following cell densities (cells per well): H358 (300), SW620 (750), PANC 08.13 (600). Cells are incubated in the presence of compound for 7-days. Viability is determined on Day 7 using CellTiter-Glo® (CTG) Luminescent Cell Viability Assay (Promega). CTG is added to a […] per well and incubated at room temperature for 15 minutes before luminescence is captured using an EnVision Reader with LUM384 US protocol. Data is analyzed using Activity Base to determine compound response and will be represented either as a percent effect (PCTEFF) or percent control (PCTOCTL) as described: Zero percent effect control (ZPE) (Negative control)—100% DMSO. Hundred percent effect (HPE) (Positive control)—1 uM Trametinib (GSK1120212, MEK inhibitor) (4 nl of 10 mM and 36 nl of DMSO per well). The following equations/nomenclature are used (% Effect; PCTEFF) and (% of Control; PCTOCTL): PCTEFF: 100*(Raw_Data_Value−HPE/ZPE−HPE), PCTOCTL: 100*Raw_Data_Value/User_Defined_Array), where the User_Defined_Array is either summarized HPE or ZPE.
(§3) Cells with “nd” indicate compound not tested in that particular assay at time of writing. It is to be understood that the geomean IC50 data may change slightly over time with increasing repeat data (ie: increasing n #).
Background: ATP-based viability assays read luminescence as a measure of living cells.

A further experiment concerns the target KRAS G12V (Homo sapiens (Human), UniProt P01116, G12V). As to the kind of experiment: SPR binding affinity and kinetics, GTPγS-loaded KRAS G12V. To be noted: GTPγS loaded protein, geomean. From the text: (§4) No additional regeneration was used.
(§5) Compound dissociation was monitored for at least 3600 seconds. […] No additional regeneration was used.
(§6) The adequateness of the fit was judged by c2 values and the randomness of residue distribution.
On the technique in general: SPR reads the build-up and loss of mass on a sensor chip optically.

Experiment [2] concerns SW620 (colorectal cancer cell line). As to the kind of experiment: KRAS Cell Titer Glo (CTG) cell proliferation assay, SW620. The format is cell-based. To be noted: SW620 cells, 7-day CTG, geomean IC50.
From the text: as §1, §2, §3

Experiment [3] relates to PANC08.13 (pancreatic cancer cell line). Briefly: KRAS Cell Titer Glo (CTG) cell proliferation assay, PANC08.13. Format: cell-based. To be noted: PANC08.13 cells, 7-day CTG, geomean IC50.
From the text: as §1, §2, §3

The target of a further experiment is KRAS Wild Type (Homo sapiens (Human), UniProt P01116). Briefly: SPR binding affinity and kinetics, GTPγS-loaded KRAS Wild Type. To be noted: GTPγS loaded protein, geomean.
From the text: as §4, §5, §6

The target of the next experiment is KRAS G12D (Homo sapiens (Human), UniProt P01116, G12D). As to the kind of experiment: SPR binding affinity and kinetics, GTPγS-loaded KRAS G12D. Conditions: GTPγS loaded protein, geomean.
From the text: as §4, §5, §6

The next experiment concerns the target KRAS G12C (Homo sapiens (Human), UniProt P01116, G12C). Briefly: SPR binding affinity and kinetics, GTPγS-loaded KRAS G12C. To be noted: GTPγS loaded protein, geomean.
From the text: as §4, §5, §6

[4] abbreviates: Homo sapiens, PANC-08-13, 168 h.

Take `C=C1CN2CCC[C@@]2(COc2nc3c4c(nc(-c5cccc6[nH]ncc56)c(F)c4n2)OC[C@@H]2COCCCN32)C1` [Example 34, (8aS)-4-fluoro-5-(1H-indazol-4-yl)-2-{[(7aS)-2-methylidenetetrahydro-1H-pyrrolizin-7a(5H)-yl]methoxy}-8a,9,12,13-tetrahydro-8H,11H-7,10-dioxa-1,3,6,13a-tetraazanaphtho[1,8-ab]heptalene]: the IC50 in experiment [1] (Homo sapiens, NCI-H358, 168 h) is > 9990 nM; in experiment [2] (Homo sapiens, SW-620, 168 h) it was > 9990 nM; in experiment [3] (setting [4]), 9350 nM. The Kd on KRAS G12V, at KRAS Wild Type, on KRAS G12D and on KRAS G12C was > 10000 nM throughout.
With `Fc1c(-c2c(C3CC3)c(Cl)cc3[nH]ncc23)nc2c3c(nc(OC[C@@]45C[C@@H](F)CN4CC4(CC4)C5)nc13)N1CCCOC[C@H]1CO2` [Example 35, (8aS)-2-{[(6′R,7′aR)-6′-fluorodihydro-1′H,3′H-spiro[cyclopropane-1,2′-pyrrolizin]-7′a(5′H)-yl]methoxy}-5-(6-chloro-5-cyclopropyl-1H-indazol-4-yl)-4-fluoro-8a,9,12,13-tetrahydro-8H,11H-7,10-dioxa-1,3,6,13a-tetraazanaphtho[1,8-ab]heptalene], the IC50 came out at 126 nM in experiment [1] (Homo sapiens, NCI-H358, 168 h); 49 nM in experiment [2] (Homo sapiens, SW-620, 168 h); 10 nM in experiment [3] (setting [4]). Also, the Kd amounted to 12 nM at KRAS G12V, 11 nM on KRAS Wild Type, 8 nM on KRAS G12D and 12 nM on KRAS G12C.
In the case of `C=C1CN2CCC[C@@]2(COc2nc3c4c(nc(-c5c(C6CC6)c(Cl)cc6[nH]ncc56)c(F)c4n2)OC[C@@H]2COCC[C@H](C)N32)C1` [Example 38, (8aS,13S)-5-(6-chloro-5-cyclopropyl-1H-indazol-4-yl)-4-fluoro-13-methyl-2-{[(7aS)-2-methylidenetetrahydro-1H-pyrrolizin-7a(5H)-yl]methoxy}-8a,9,12,13-tetrahydro-8H,11H-7,10-dioxa-1,3,6,13a-tetraazanaphtho[1,8-ab]heptalene], the half-maximal inhibitory concentration (IC50) in experiment [1] (Homo sapiens, NCI-H358, 168 h) was found to be 8 nM; in experiment [2] (Homo sapiens, SW-620, 168 h), 18 nM; in experiment [3] (setting [4]), 2 nM. In addition, the Kd was 4 nM on KRAS G12V, 4 nM on KRAS Wild Type, 2 nM at KRAS G12D and 3 nM at KRAS G12C.
Regarding `Fc1c(-c2c(C3CC3)c(Cl)cc3[nH]ncc23)nc2c3c(nc(OC[C@@]45CCCN4CC(=C4CC4)C5)nc13)N1CCCOC[C@H]1CO2` [Example 40, (8aS)-5-(6-chloro-5-cyclopropyl-1H-indazol-4-yl)-2-{[(7aS)-2-cyclopropylidenetetrahydro-1H-pyrrolizin-7a(5H)-yl]methoxy}-4-fluoro-8a,9,12,13-tetrahydro-8H,11H-7,10-dioxa-1,3,6,13a-tetraazanaphtho[1,8-ab]heptalene], the IC50 in experiment [1] (Homo sapiens, NCI-H358, 168 h) was determined as 52 nM; in experiment [2] (Homo sapiens, SW-620, 168 h), 60 nM; in experiment [3] (setting [4]), 13 nM. The equilibrium dissociation constant (Kd) at KRAS G12V amounted to 6 nM; on KRAS Wild Type it was 6 nM; on KRAS G12D, 4 nM; on KRAS G12C, 7 nM.
Turning to `Fc1c(-c2c(C3CC3)c(Cl)cc3[nH]ncc23)nc2c3c(nc(OC[C@@]45CCCN4CC(=C4CCOCC4)C5)nc13)N1CCCOC[C@H]1CO2` [Example 42, (8aS)-5-(6-chloro-5-cyclopropyl-1H-indazol-4-yl)-4-fluoro-2-{[(7aS)-2-(oxan-4-ylidene)tetrahydro-1H-pyrrolizin-7a(5H)-yl]methoxy}-8a,9,12,13-tetrahydro-8H,11H-7,10-dioxa-1,3,6,13a-tetraazanaphtho[1,8-ab]heptalene], the IC50 in experiment [1] (Homo sapiens, NCI-H358, 168 h) was found to be 288 nM; in experiment [2] (Homo sapiens, SW-620, 168 h) it was 233 nM; in experiment [3] (setting [4]) it was 44 nM. Also, the Kd on KRAS G12V is 32 nM; on KRAS Wild Type, 68 nM; on KRAS G12D it was 24 nM; at KRAS G12C, 33 nM.
Regarding `CN(C)C(=O)/C=C1\CN2CCC[C@@]2(COc2nc3c4c(nc(-c5c(C6CC6)c(Cl)cc6[nH]ncc56)c(F)c4n2)OC[C@@H]2COCCCN32)C1` [Example 43, (2Z)-2-[(7aS)-7a-({[(8aS)-5-(6-chloro-5-cyclopropyl-1H-indazol-4-yl)-4-fluoro-8a,9,12,13-tetrahydro-8H,11H-7,10-dioxa-1,3,6,13a-tetraazanaphtho[1,8-ab]heptalen-2-yl]oxy}methyl)tetrahydro-1H-pyrrolizin-2(3H)-ylidene]-N,N-dimethylacetamide], the IC50 is > 9990 nM in experiment [1] (Homo sapiens, NCI-H358, 168 h); > 9990 nM in experiment [2] (Homo sapiens, SW-620, 168 h); 5510 nM in experiment [3] (setting [4]). Further, the Kd at KRAS G12V worked out at 677 nM; at KRAS Wild Type, 742 nM; at KRAS G12D, 493 nM; on KRAS G12C, 539 nM.
With `OC/C=C1\CN2CCC[C@@]2(COc2nc3c4c(nc(-c5c(C6CC6)c(Cl)cc6[nH]ncc56)c(F)c4n2)OC[C@@H]2COCCCN32)C1` [Example 44, (2Z)-2-[(7aS)-7a-({[(8aS)-5-(6-chloro-5-cyclopropyl-1H-indazol-4-yl)-4-fluoro-8a,9,12,13-tetrahydro-8H,11H-7,10-dioxa-1,3,6,13a-tetraazanaphtho[1,8-ab]heptalen-2-yl]oxy}methyl)tetrahydro-1H-pyrrolizin-2(3H)-ylidene]ethan-1-ol], the IC50 in experiment [1] (Homo sapiens, NCI-H358, 168 h) amounted to 43 nM; in experiment [2] (Homo sapiens, SW-620, 168 h), 94 nM; in experiment [3] (setting [4]), 125 nM. The equilibrium dissociation constant (Kd) on KRAS G12V came out at 3 nM; at KRAS Wild Type, 3 nM; at KRAS G12D, 2 nM; at KRAS G12C, 3 nM.
As for `C=C1CN2CCC[C@@]2(COc2nc3c4c(nc(-c5c6c(cc7[nH]ncc57)CCCC6)c(F)c4n2)OC[C@@H]2COCCCN32)C1` [Example 50, (8aS)-4-fluoro-2-{[(7aS)-2-methylidenetetrahydro-1H-pyrrolizin-7a(5H)-yl]methoxy}-5-(5,6,7,8-tetrahydro-1H-benzo[f]indazol-4-yl)-8a,9,12,13-tetrahydro-8H,11H-7,10-dioxa-1,3,6,13a-tetraazanaphtho[1,8-ab]heptalene], the IC50 in experiment [1] (Homo sapiens, NCI-H358, 168 h) stood at 206 nM; in experiment [2] (Homo sapiens, SW-620, 168 h), 75 nM; in experiment [3] (setting [4]), 105 nM. The Kd on KRAS G12V came out at 42 nM; at KRAS Wild Type, 53 nM; on KRAS G12D, 31 nM; at KRAS G12C, 47 nM.
For “(8aS)-5-(5-chloro-6-fluoro-1H-indazol-4-yl)-4-fluoro-2-{[(7aS)-2-methylidenetetrahydro-1H-pyrrolizin-7a(5H)-yl]methoxy}-8a,9,12,13-tetrahydro-8H,11H-7,10-dioxa-1,3,6,13a-tetraazanaphtho[1,8-ab]heptalene [Example 9]”, the IC50 in experiment [1] stood at 758 nM; in experiment [2], 914 nM; in experiment [3], 140 nM. In addition, the Kd at KRAS G12V is 303 nM; at KRAS Wild Type it was 389 nM; on KRAS G12D, 270 nM; at KRAS G12C, 430 nM.
As to “(8aS)-5-(6-chloro-5-cyclopropyl-1H-indazol-4-yl)-4-fluoro-2-{[(1S,7aS*)-1-methoxy-6-methylidenetetrahydro-1H-pyrrolizin-7a(5H)-yl]methoxy}-8a,9,12,13-tetrahydro-8H,11H-7,10-dioxa-1,3,6,13a-tetraazanaphtho[1,8-ab]heptalene [Example 61]”, the values for the IC50 in experiment [1], in experiment [2] and in experiment [3] were 21 nM, 38 nM and 11 nM, respectively. Further, the Kd on KRAS G12V amounted to 5 nM; at KRAS Wild Type, 5 nM; on KRAS G12D, 3 nM; on KRAS G12C it was 4 nM.

What is called IC50 is the concentration at which inhibition is half-maximal. A low value points to inhibition by little substance. For orientation: Kd means the concentration at which binding is half-saturated.
